Assays:
[1] = system: HeLa cells; experiment: Cytoprotection from ER stress (tunicamycin), cell viability by WST-8; assay type: cell-based; parameters: key to Cytoprotection from ER stress compared to guanabenz: +: lower cytoprotective effect compared to Guanabenz; ++: similar cytoprotective effect compared to Guanabenz; +++: higher cytoprotective effect compared to Guanabenz; conditions: HeLa cells, 6 hour exposure to tunicamycin 5 μg/mL, compounds 0.5-10 μM, viability 48 h or 72 h
Description: Cytoprotection against ER stress can be measured by a suitable assay. For example, cytoprotection can be measured in HeLa cells in which ER stress is elicited by the addition of media containing tunicamycin, a mixture of homologous nucleoside antibiotics that inhibits the UDP-HexNAc: polyprenol-P HexNAc-1-P family of enzymes and is used to induce unfolded protein response. Cell viability can be detected in the presence and absence of inhibitor compounds after a set period of time, by measuring the reduction of WST-8 into formazan using a standard cell viability kit (such as Cell Viability Counting Kit-8 from Dojindo). Cytoprotection from ER stress is measured in terms of the percentage increase in viable cells (relative to control) after ER stress. Further details of a suitable assay are set forth in the accompanying Examples section.
This assay is described in Tsaytler et al. (Science 2011). HeLa Cells were cultured in Eagle's Minimum Essential Medium (EMEM) supplemented with Glutamine, Sodium Pyruvate, Non-Essential Amino Acids, Penicillin and Streptomycin containing 10% Foetal Bovine Serum (FBS), at 37° C. in 5% CO2 atmosphere. Cells were plated in 96 well plates at a density of 17,000 cells/mL the day before the treatment. ER stress was elicited by addition of 5 μg/mL tunicamycin (Sigma-Aldrich) together with PPP1R15A inhibitors (0.5-10 μM). Media were changed 6h later with fresh media and the cytoprotection was maintained by the addition of PPP1R15A inhibitors (0.5-10 μM). Cell viability was assessed by measuring the reduction of WST-8 into formazan using Cell Counting Kit-8 (Sigma) according to the supplier's recommendation, 48 h or 72h after tunicamycin treatment. Cytoprotection from ER stress is measured in terms of cytoprotective potency effect compared to the reference compound Guanabenz (Tsaytler et al., Science 2011) after ER stress: • ‘+’ no cytoprotective effect; • ‘+’ lower cytoprotective effect compared to Guanabenz; • ‘++’ similar cytoprotective effect compared to Guanabenz; • ‘+++’ higher cytoprotective effect compared to Guanabenz.
Table 1 summarizes the results of cytoprotective effect of different compounds of the invention, compared to guanabenz, after the stress induced by a 6 hour exposure of tunicamycin.

[2] = system: rotenone injured primary mesencephalic rat neurons; experiment: In vitro Parkinson's disease model: rotenone injured primary mesencephalic rat neurons; assay type: cell-based; conditions: rotenone 10 nM, 24 hours; total number of TH positive neurons
Description: Rat dopaminergic neurons were cultured as described by Schinelli et al., (1988 J. Neurochem 50 pp1900-07) and Visanji et al., (2008 FASEB J. 22(7) pp2488-97). Briefly, the midbrains obtained from 15-day old rat embryos (Janvier Labs, France) were dissected under a microscope. The embryonic midbrains were removed and placed in ice-cold medium of Leibovitz (L15, Pan Biotech, Batch: 9310614) containing 2% of Penicillin-Streptomycin (PS, Pan Biotech, Batch: 1451013) and 1% of bovine serum albumin (BSA, Pan Biotech, Batch: h140603). The ventral portion of the mesencephalic flexure, a region of the developing brain rich in dopaminergic neurons, was used for the cell preparations.
The midbrains were dissociated by trypsinisation for 20 min at 37° C. (Trypsin 0.05% EDTA 0.02%, PanBiotech, Batch: 5890314). The reaction was stopped by the addition of Dulbecco's modified Eagle's medium (DMEM, PanBiotech, Batch: 1300714) containing DNAase I grade II (0.1 mg/ml, PanBiotech, Batch: H140508) and 10% of foetal calf serum (FCS, Gibco, Batch: 41Q7218K). Cells were then mechanically dissociated by 3 passages through a 10 ml pipette. Cells were then centrifuged at 180×g for 10 min at +4° C. on a layer of BSA (3.5%) in L15 medium. The supernatant was discarded and the cell pellets were re-suspended in a defined culture medium consisting of Neurobasal (Invitrogen, Batch: 1636133) supplemented with B27 (2%, Invitrogen, Batch: 1660670), L-glutamine (2 mM, PanBiotech, Batch: 8150713) and 2% of PS solution and 10 ng/ml of Brain-derived neurotrophic factor (BDNF, PanBiotech, Batch: H140108) and 1 ng/ml of Glial-Derived Neurotrophic Factor (GDNF, Pan Biotech, Batch: H130917). Viable cells were counted in a Neubauer cytometer using the trypan blue exclusion test. The cells were seeded at a density of 40 000 cells/well in 96 well-plates pre-coated with poly-L-lysine (Corning Biocoat, Batch: 6614022) and maintained in a humidified incubator at 37° C. in 5% CO2/95% air atmosphere. Half of the medium was changed every 2 days with fresh medium.
On day 6 of culture, the medium was removed and fresh medium was added, without or with rotenone (Sigma, Batch: 021M2227V) at 10 nM diluted in control medium, 3 wells per condition were assessed. […]
The immunolabeled cultures were automatically examined with ImageXpress (Molecular device USA). For each condition, 20 automatically fields per well (representing ˜80% of the total surface of the well) from 3 wells were analyzed. The total number of TH neurons was automatically analyzed using Custom module editor (Molecular Devices, USA). […] All values were expressed as mean +/−SEM (s.e. mean) of the 1 culture (n=3 wells per condition per culture).

[3] = molecular target: T1, human alpha2A receptor (Homo sapiens, UniProt P08913); experiment: Functional GPCR assay for adrenergic α2A receptor (CellKey detection method); assay type: cell-based; conditions: agonist activity, CHO cells expressing human alpha2A receptor, impedance (CellKey); read-out: Functional adrenergic alpha2 receptor assay EC50
T1 construct: CHO cells endogenously expressing human alpha2A receptor; endogenous in cells; host or cells: CHO cells
T1 sequence (P08913 1-465): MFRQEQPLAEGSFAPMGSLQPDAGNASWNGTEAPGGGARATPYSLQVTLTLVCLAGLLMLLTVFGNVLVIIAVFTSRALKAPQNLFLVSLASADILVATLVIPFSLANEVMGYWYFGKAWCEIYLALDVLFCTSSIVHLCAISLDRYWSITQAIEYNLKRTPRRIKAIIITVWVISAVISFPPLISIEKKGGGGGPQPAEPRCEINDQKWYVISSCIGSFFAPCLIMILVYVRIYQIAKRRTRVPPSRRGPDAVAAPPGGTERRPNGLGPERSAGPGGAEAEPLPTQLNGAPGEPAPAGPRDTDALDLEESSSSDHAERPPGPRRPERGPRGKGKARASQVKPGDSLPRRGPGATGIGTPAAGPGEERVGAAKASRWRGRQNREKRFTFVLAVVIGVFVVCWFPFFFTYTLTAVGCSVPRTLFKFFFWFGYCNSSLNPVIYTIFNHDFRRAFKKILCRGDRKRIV
Description: The agonist activity of compounds was evaluated on CHO cells […] expressing human alpha2A receptor and was determined by measuring their effects on impedance modulation using the CellKey detection method. Cells were seeded onto 96-well plate at density of 6×10^4 cells/well in HBSS buffer (Invitrogen)+20 mM HEPES (Invitrogen) with 0.1% BSA and are allowed to equilibrate for 60 min at 28° C. before the start of the experiment. Plates were placed onto the system and measurements were made at a temperature of 28° C. Solutions were added simultaneously to all 96 wells using an integrated fluidics system: HBSS (basal control), reference agonist at 100 nM (stimulated control), reference agonist (EC50 determination) or the test compounds. Impedance measurements are monitored for 10 minutes after ligand addition. The standard reference agonist is epinephrine, which is tested in each experiment at several concentrations to generate a concentration-response curve from which its EC50 value is calculated.
Dose-response data from test compounds were analysed with Hill software using non-linear regression analysis of the concentration-response curves generated with mean replicate values using Hill equation curve fitting.

[4] = system: mouse embryonic fibroblasts lipofected with poly I:C; experiment: In vitro inflammation/infection model: poly I:C induced mouse embryonic fibroblasts; assay type: cell-based; conditions: 25 μM, 6h, IFN-beta ELISA in culture supernatants
Description: Mouse Embryonic Fibroblasts (MEFs) were lipofected with poly I:C and treated with […] compounds of the invention (25 μM) for 6h. After 6h of culture, elF2alpha-phosphorylation (elF2a-P) and PPP1R15A (GADD34) expression was monitored by western blotting, while type-1 Interferon(IFN)-beta production was quantified in culture supernatants by ELISA. Control (nt) and poly I:C/DMSO are respectively negative and positive controls. Poly I:C (polyinosinic:polycytidylic acid or polyinosinic-polycytidylic acid sodium salt) is an immunostimulant used to simulate viral infections. Poly I:C which is structurally similar to double-stranded RNA, is known to interact with toll-like receptor 3 which is expressed in the intracellular compartments of B-cells and dendritic cells. Guanabenz (25 μM) was used as reference inhibitory compound.
MEFs were cultured in DMEM, 10% FCS (HyClone, Perbio), 100 units/ml penicillin, 100 μg/ml streptomycin, 2 mM glutamine, 1× MEM non-essential amino acids and 50 μM 2-mercaptoethanol. MEFS were treated for the indicated time with 10 μg/ml poly I:C (InvivoGen) in combination with lipofectamine 2000 (Invitrogen).
Cells were lysed in 1% Triton X-100, 50 mM Hepes, 10 mM NaCl, 2.5 mM MgCl2, 2 mM EDTA, 10% glycerol, supplemented with Complete Mini Protease Inhibitor Cocktail Tablets (Roche). Protein quantification was performed using the BCA Protein Assay (Pierce). 25-50 μg of Triton X-100-soluble material was loaded on 2%-12% gradient or 8% SDS-PAGE before immunoblotting and chemi-luminescence detection (SuperSignal West Pico Chemi-luminescent Substrate, Pierce). Rabbit polyclonal antibodies recognizing GADD34 (C-19) were from Santa Cruz Biotechnology and anti-elF2alpha[pS^52] were from Invitrogen.
IFN-beta quantification in culture supernatant was performed using the Mouse Interferon Beta ELISA kit (PBL Interferon Source) according to manufacturer instructions.
Normal response of MEFs to poly I:C is characterized by PPP1R15A expression, increase in elF2alpha-P (variable in time and related to the levels PPP1R15A expression) mediated by PKR activation and type-I IFN production (range 500 to 700 pg/ml). Knock out PPP1R15A MEFs are unable to produce this cytokine in response to poly I:C.
The potency of compounds of the invention to inhibit PPP1R15A was evaluated by measuring the increase of elF2alpha phosphorylation, the decrease of PPP1R15A expression due to its own pharmacological inhibition resulting in general protein synthesis inhibition and type-I IFN production.

[5] = system: HeLa cells; conditions: tunicamycin; Tsaytler et al., Science 2011; read-out: median effective concentration, survival of HeLa cells exposed to ER stress; cited from earlier work

EC50 [3]	SMILES	Cytoprotection from ER stress compared to guanabenz [1]	further results
	CCCO/N=C(\N)N/N=C/c1c(F)cccc1Cl [Compound 19, 2-(2-chloro-6-fluorobenzylidene)-N′-propoxyhydrazinecarboximidamide]	+++	
	C=CCO/N=C(\N)N/N=C/c1ccccc1Cl [Compound 5, 2-(2-chlorobenzylidene)-N′-(prop-2-en-1-yloxy)hydrazinecarboximidamide]	+	protection of rotenone injured primary mesencephalic rat neurons (FIG. 3) [2]: dose dependent protection
> 33.3 µM	CCSCCONC(=N)N/N=C/c1ccccc1Cl [Compound 15, 2-(2-chlorobenzylidene)-N-[2-(ethylsulfanyl)ethoxy]hydrazinecarboximidamide]	++	
> 33.3 µM	N/C(=N\OCCO)N/N=C/c1ccccc1Cl [Compound 6, 2-(2-chlorobenzylidene)-N′-(2-hydroxyethoxy)hydrazinecarboximidamide]	++	prevention of type-I IFN production (FIG. 9) [4]: prevent type-I IFN production
	NC(N)=N/N=C/c1c(Cl)cccc1Cl [guanabenz, 2-(2,6-dichlorobenzylidene)hydrazinecarboximidamide]		EC50 [5]: ~0.4 µM
	CC(C)=CCONC(=N)N/N=C/c1ccccc1Cl [Compound 14, 2-(2-chlorobenzylidene)-N′-[(3-methylbut-2-en-1-yl)oxy]hydrazinecarboximidamide]	++	
> 33.3 µM	CCOCCONC(=N)N/N=C/c1ccccc1Cl [Compound 13, 2-(2-chlorobenzylidene)-N-(2-ethoxyethoxy)hydrazinecarboximidamide]	++	
	CS(=O)(=O)CCCO/N=C(\N)N/N=C/c1ccccc1Cl [Compound 4, 2-(2-chlorobenzylidene)-N′-[3-(methylsulfonyl)propoxy]hydrazinecarboximidamide]	++	
	CCCO/N=C(\N)N/N=C/c1ccncc1Cl [Compound 23, 2-[(3-chloropyridin-4-yl)methylidene]-N-propoxyhydrazinecarboximidamide]	++	
	CCCO/N=C(\N)N/N=C/c1c(Cl)cccc1Cl [Compound 21, 2-(2,6-dichlorobenzylidene)-N-propoxyhydrazinecarboximidamide]	++	

From US11084783B2, “O-alkyl-benzylideneguanidine derivatives and therapeutic use for the treatment of disorders associated with an accumulation of misfolded proteins” (INFLECTIS BIOSCIENCE, priority 2014, dated 2021)
